Measured values reported in PMC5603603, “Linoleic and palmitoleic acid block streptokinase-mediated plasminogen activation and reduce severity of invasive group A streptococcal infection” (Scientific Reports, 2017).
Several values for one entry are separate records, joined by “and”; a condition that tells them apart may be missing. Identical values can stand only once.

Legend:
[1] = test system: recombinant cluster 2a type streptokinase; assay: Plasminogen assay using recombinant streptokinase; format: biochemical, group A streptococcal strain A614; details: 40 µg/ml
Procedure: An overnight culture of the strain A614 (in THY medium) was centrifuged at 5000 rpm for 10 min. The supernatant was discarded and the pellet was resuspended in TE-buffer (from DNeasy blood and tissue kit, Qiagen) containing 10% DNase-free RNase (10 µg/ml). The suspension was transferred to a vial filled with zirconium beads. Bacterial cells were lysed using a fastprep machine (MP Biomedical) twice for 30 sec at 4.0 m/sec. Then AL-buffer (from DNeasy blood and tissue kit, Qiagen) was added and beads were spun down for 30 sec. The lysate was transferred to a new reaction tube and proteinase K was added. The tube was inverted and incubated for 30 min at 56 °C. Then 100% ethanol was added and genomic DNA was isolated according to the protocol of the DNeasy blood and tissue kit (Qiagen). […] Using a gel electrophoresis, the 1500 bp product was detected, cut out and purified using a PCR clean-up, gel extraction kit (Machery-Nagel). […]
75 µl of the recombinant streptokinase (concentration 1 mg/ml) was added to the wells of a 96well plate followed by 69 µl PBS, 5 µl S-2251 (10 mM stock solution, chromogenic substrate for the detection of plasmin, Chromogenix) and 1 µl plasminogen (1 mg/ml stock solution, Biopur or Sigma). […] The absorption was measured at the beginning of the reaction and then every hour at 405 nm after 3 sec of shaking on a Tecan Sunrise ELISA Reader using Magellan software. […]

[2] = molecular target: cluster 2b type streptokinase (Streptococcus pyogenes, UniProt P10520); design: species or system group A streptococcal strain A314; details: cell-based; for IC50: cluster 2b; for fold lower IC50 compared to TXA and EACA: streptokinase cluster type 2b
Procedure: Then inhibitory compounds (LA, PA, oleic, myristic, stearic, palmitic, arachidonic, arachidic, linolenic acid, TXA or EACA) were added. Stocks of LA and PA were prepared in methanol and then diluted in PBS. Stocks of arachidic, oleic, arachidonic, myristic, palmitic, stearic and linolenic acid were prepared in 60% DMSO/PBS and then diluted in PBS. The untreated control received the same amount of PBS as in case of TXA and EACA as control or the same amount of methanol diluted in PBS as in case of LA and PA, respectively, or the same amount of DMSO diluted in PBS as in case of the other commercially available fatty acids. […] The assay was incubated at 37 °C and measured at the beginning of the reaction and then every hour at 405 nm after 3 sec of shaking on a Tecan Sunrise ELISAReader using Magellan software. Each experiment was repeated three times. IC50 values were calculated using Microsoft® Excel software.

[3] = molecular target: cluster 2a type streptokinase (Streptococcus pyogenes, UniProt A0A288R465); design: species or system group A streptococcal strain A614; details: cell-based; for fold lower IC50 compared to TXA and EACA: streptokinase cluster type 2a
Procedure: The pellet from a mid-log phase culture of the strain A614 (cluster 2a type) or A314 (cluster 2b type) was washed twice with PBS and bacteria were adjusted to an OD600 of 1.0 in HEPES-buffer (10 mM HEPES, 150 mM NaCl, 0.01% Tween 20, pH 7.4). 90 µl of bacterial cells, plasminogen (final concentration 6.7 µg/ml per well) and fibrinogen (final concentration 1 µM per well) were pre-mixed. Then inhibitory compounds (LA, PA, oleic, myristic, stearic, palmitic, arachidonic, arachidic, linolenic acid, TXA or EACA) were added. Stocks of LA and PA were prepared in methanol and then diluted in PBS. Stocks of arachidic, oleic, arachidonic, myristic, palmitic, stearic and linolenic acid were prepared in 60% DMSO/PBS and then diluted in PBS. The untreated control received the same amount of PBS as in case of TXA and EACA as control or the same amount of methanol diluted in PBS as in case of LA and PA, respectively, or the same amount of DMSO diluted in PBS as in case of the other commercially available fatty acids. Then 50 µl of the respective supernatant (supernatant from the strain A614 if cells from A614 were used, supernatant from the strain A314 were used in case of cells from the GAS strain A314) and 3.75 µl 10 mM S-2251 (Chromogenix) were added. The assay was incubated at 37 °C and measured at the beginning of the reaction and then every hour at 405 nm after 3 sec of shaking on a Tecan Sunrise ELISAReader using Magellan software. Each experiment was repeated three times. IC50 values were calculated using Microsoft® Excel software.

| SMILES | inhibition of plasminogen activation [1] | IC50 [2] | fold lower IC50 compared to TXA and EACA [2] | IC50 ([3]; cluster 2a) | fold lower IC50 compared to TXA and EACA [3] |
| --- | --- | --- | --- | --- | --- |
| CCCCCC/C=C\CCCCCCCC(=O)O [PA, palmitoleic acid] | 60–70% | 61.1 µM and 63.3 µM | 1000 fold | 359 µM and 471 µM | 250 fold |
| CCCCC/C=C\C/C=C\CCCCCCCC(=O)O [LA, linoleic acid] | 60–70% | 64.5 µM and 61.7 µM | 1000 fold |  | 250 fold |
